According to PMC8202924, “Emodepside targets SLO-1 channels of Onchocerca ochengi and induces broad anthelmintic effects in a bovine model of onchocerciasis” (PLoS Pathogens, 2021):
Values joined by “and” are separate entries in the source; they are usually repeats but may differ in a detail not shown here. Equal entries are not always repeated. Where two headings read alike, the source gives them in different places.

Assays:
[1] = Plasma PK of emodepside in the main trial, LC-MS/MS; format: in vivo, zebu (Ngaoundéré Gudali) cattle (B. t. indicus); settings: for Model tmax in plasma: two-compartment model; for Tmax: bovine, iv, read-out: Time of observed Cmax in plasma (converted)
Description: Bovine samples (EDTA-plasma, skin snips and nodules) were stored at –80°C in Cameroon and shipped according to international transportation guidelines on dry ice to Bayer, Germany. Due to suspected contamination with other pathogens, samples required decontamination. Based on modified WHO guidelines for viral inactivation and reports of virus stability in fluids and solid media issued by the United States Army, decontamination of samples was performed. Samples were thawed slowly in a microbiological safety cabinet and the plasma samples were vortexed gently. Skin snips and nodules were homogenized in a Qiagen TissueLyser II (Qiagen NV, Hilden, the Netherlands) with stainless steel beads. Homogenates were weighed and mixed with 4.5 volumes of a 0.5% collagenase solution (collagenase from Clostridium histolyticum [>125 IU/mg] Merck KGaA, Darmstadt, Germany), then incubated at 37°C with orbital mixing at 140 rpm for 48 h.
Plasma samples, skin and nodule homogenates were precipitated in a 1:10 ratio with acetonitrile using a vortex mixer at 150 rpm for 10 min, then centrifuged for 5 min at 14,000 rpm. The supernatants were pipetted into gas-tight vials and incubated at 80°C for 21 min to achieve a core temperature of 80°C for 10 min, then cooled to 4°C in a water-ice bath. Finally, samples were filtered using a cellulose sterile filter (S&S Spartan 13/30) into standard HPLC vials for liquid chromatography–mass spectrometry analysis. For liquid chromatography on a C18 column, a water/methanol gradient (containing 10 mmol ammonium acetate and 0.1 mL/L formic acid) was used. Quantification of emodepside was performed by tandem mass spectrometry on an API 5500 instrument (AB Sciex, Darmstadt, Germany) using the transition of m/z = 1,120 ([M + H]^+) to its product ion m/z = 343. […]
For the PK mean model, the PK of emodepside was modelled using a closed-form, two-compartment IV model according to Eq 1. csdt=dose*c0*exp−ke*t*1+delta*exp+ke*f*t (1) with ke, f and delta being parameters describing the distribution and elimination phase, and c0 being a proportionality factor for the dose.
The multiple IV dose was modelled as an additive single-dose, two-compartment model according to Eq 2. cmdt=∑i=17t−i*tΔ>0?csdt−i*tΔ:0 (2) with i as index of doses (1 to 7), and tΔ the difference in time between consecutive doses (here 24 h).
Parameters describing distribution and elimination of emodepside were fitted to the observed data of all dose steps and animals together using the optim fit function of R and the ‘L-BFGS-B’ method […] box constraints. From the observed data, the maximal observed concentration and the corresponding timepoint were extracted. The terminal half-life was calculated from the last three datapoints. The corresponding mean values were derived from the compartmental model parameters.

[2] = test system: Onchocerca ochengi microfilariae; test: Dermal microfilarial density in naturally infected cattle; format: in vivo; settings: MRSM, 4 mg/kg every other day for 3 days
Description: By group, the geometric mean Mf load per 100 mg skin ranged from 100 to 500 (Table 1); two animals found to be negative for skin Mf were distributed in different groups. Eighteen preselected nodules per animal were marked with tattoo ink, and their positions were recorded on a hardcopy ‘hide map’ and by digital video [57]. All assessments of drug efficacy were conducted by individuals blinded to the treatment groups. The study was conducted unmasked. All study personnel provided a signed declaration to conduct the study according to the specified protocol. Verum or vehicle was administered as described in the dose confirmation study.
Worms from a second unfixed nodule (at the same timepoints listed above) were subjected to a 3-(4,5-dimethylthiazol-2-yl)-2,5-diphenyltetrazolium bromide (MTT) assay for metabolic activity, in which the insoluble formazan product was dissolved in DMSO and quantified colorimetrically at 620 nm in a microplate reader (model LT4500, Labtech, Heathfield, East Sussex, UK). Finally, dermal microfilarial densities were determined by incubation of skin biopsies (in triplicate per animal per timepoint) and normalized to 100 mg skin [59].

[3] = test system: Onchocerca ochengi adult female worms; test: Embryogram (uterine contents of female worms from nodules); format: in vivo; settings: MRSM, 4 mg/kg every other day for 3 days; P = 0.005
Description: (§1) Tattooed nodules were removed under local anesthesia (lidocaine-epinephrine) on study days -1, 90, 180–190, 270–290, 360 and 550 in a randomized order as previously described. Nodules were trimmed of excess tissue and up to four nodules per animal were processed separately as follows: (1) stored frozen at –80°C for PK analysis (up to day 14 only); (2) injected in toto with 10% neutral-buffered formalin and stored at 4°C for histopathology (up to day 290 only); or (3) dissected immediately in phosphate-buffered saline to separate adult male and female worms. The anterior end of the female worm (which even in viable specimens is the only motile part of the parasite) was removed from the worm mass and incubated alongside intact male worms for 30 min at 37°C for visual motility assessment on a three-point scale. The remaining portion of the female worm mass was subjectively scored for fecundity on a four-point scale (0, uteri empty or worm structure degraded; 1, low; 2, intermediate; 3, normal) by examining the uterine contents microscopically in situ. This was followed by a fully quantitative embryogram to enumerate oocytes, embryonic stages and intrauterine Mf as described previously.
The same principle was applied to the analysis of the uterine contents. […] Over all doses and individual animals, an effect size (m) and corresponding statistics were calculated using R’s lm function.

[4] = test system: Onchocerca ochengi adult female worms; test: Ex vivo visual motility assessment of adult female worms from nodules; format: in vivo; settings: MRSM, 4 mg/kg every other day for 3 days
Description: as §1
The second class of PD endpoint considered was worm motility, which was recorded as a three-class categorical variable and quantified here as a fraction of normal worm motility. First, a linear model of decrease in motility per dose group was established with a study-wide mean motility at day –1: motilitydose_group,t=meanmotilityday−1−slopedose_group*t (5)

[5] = EMO1L, 0.15 mg/kg IV single dose, individual animals in order B0696, B0698, B0700, B0722, B0730, B0731, B0762

For `CC(C)C[C@H]1C(=O)O[C@H](Cc2ccc(N3CCOCC3)cc2)C(=O)N(C)[C@@H](CC(C)C)C(=O)O[C@H](C)C(=O)N(C)[C@@H](CC(C)C)C(=O)O[C@H](Cc2ccc(N3CCOCC3)cc2)C(=O)N(C)[C@@H](CC(C)C)C(=O)O[C@H](C)C(=O)N1C` [emodepside], the “Time of observed Cmax in plasma” value ([1]; EMO1H, 0.75 mg/kg IV single dose, animals in order B0054, B0405, B0439, B0726, B0728) was 5 min, the tlast in plasma ([1]; EMO1H, 0.75 mg/kg IV single dose, individual animals in order B0054, B0405, B0439, B0721, B0726, B0727, B0728) was 168 h (2×) and 504 h (4×) and 336 h and the “Model tmax in plasma” value ([1]; EMO1H, 0.75 mg/kg IV single dose) was 0.0035 days. For the same molecule, the “Time of observed Cmax in plasma” value [1, 5] was 5 min (6×) and 30 min, the tlast in plasma [1, 5] was 168 h (3×) and 336 h (2×) and 504 h and the “Model tmax in plasma” value ([1]; EMO1L, 0.15 mg/kg IV single dose) was 0.0035 days. The tlast in plasma ([1]; EMO7H, 0.75 mg/kg IV daily for 7 days, individual animals in order B0404, B0434, B0694, B0695, B0734, B0750, B0765) was 504 h, the “Model tmax in plasma” value ([1]; EMO7H, 0.75 mg/kg IV daily for 7 days) was 6 days and the tlast in plasma ([1]; EMO7L, 0.15 mg/kg IV daily for 7 days, individual animals in order B0228, B0407, B0549, B0725, B0733, B0735, B0761) was 336 h and 504 h (6×). The “Model tmax in plasma” value ([1]; EMO7L, 0.15 mg/kg IV daily for 7 days) was 6 days, the Tmax ([1]; Ngaoundéré Gudali zebu, plasma, 0.15 mg/kg, EMO7L, 0.15 mg/kg IV daily for 7 days, animals in order B0228, B0407, B0735, B0761) was 1440 min and the Tmax ([1]; Ngaoundéré Gudali zebu, plasma, 0.15 mg/kg, EMO7L, 0.15 mg/kg IV daily for 7 days, animals in order B0549, B0725, B0733) was 5 min. For the same molecule, the Tmax ([1]; Ngaoundéré Gudali, plasma, 0.75 mg/kg, EMO7H, 0.75 mg/kg IV daily for 7 days, animals in order B0434, B0695, B0734) was 5 min and the Terminal half-life ([1]; plasma, derived from observed data and aggregated through the PK model, all dose groups) was “approximately 106 h”.

With `NCCS[As](SCCN)c1ccc(Nc2nc(N)nc(N)n2)cc1` [melarsomine] the “Mf density over time” value [2] was “complete clearance after one year”, the “AUC for all embryonic stages” value [3] was “significantly reduced” and the Female worm motility ([4]; by day 90, all nodules) was “reduced to zero”. The “Fraction of normal adult female worm motility” value (from here on “Fraction”) ([4]; day 90, n = 7) was 0%, the “Fraction” value ([4]; day 185, n = 7) was 0% and the “Fraction” value ([4]; day 275, n = 7) was 0%. The “Fraction” value ([4]; day 360, n = 2) was 0% and the “Fraction” value ([4]; day 550, n = 2) was 0%.
